Laboratory results: US11554182B2, “Macrocyclic complexes of alpha-emitting radionuclides and their use in targeted radiotherapy of cancer” (CORNELL UNIVERSITY, priority 2017, dated 2023)

Assay: In vivo biodistribution of ^225Ac complexes after intravenous injection
Set-up: species or system C57BL/6 mice
Experimental: In Vivo Biodistribution of ^225Ac Complexes of Macropa and DOTA. All experiments were approved by the Institutional Animal Care Committee (IACC) of the University of British Columbia and were performed in accordance with the Canadian Council on Animal Care Guidelines. A total of 9 female C57BL/6 mice (6-8 weeks old, 20-25 g) were used for the biodistribution study of each radiometal complex, n=3 for each time point.
Macropa (100 μL of a 1 mg/mL solution in NH4OAc) was diluted with 387 μL of NH4OAc (1 M, pH 7), and an aliquot (203 μL) of ^225Ac(NO3)3 (˜157 kBq) was then added; the pH of this solution was adjusted to 6.5-7 by the addition of 1 M NaOH (210 μL, trace metal grade). After 5 min at ambient temperature, the reaction solution was analyzed by TLC (0.4 M pH 4 sodium citrate as the eluent), which confirmed >95% radiochemical yield. The reaction was allowed to proceed overnight, and the radiochemical yield was again confirmed to be >95% the following morning. At this time, mice were anesthetized by 2% isoflurane, and approximately 100 μL (10-15 kBq) of the [^225Ac(macropa)]^+ complex were injected into the tail vein of each mouse. After injection, mice were allowed to recover and roam freely in their cages, and were euthanized by CO2 inhalation at 15 min, 1 h, or 5 h (n=3 at each time point) post-injection. Blood was collected by cardiac puncture and placed into an appropriate test tube for scintillation counting. Tissues collected included heart, liver, kidneys, lungs, small intestine, large intestine, brain, bladder, spleen, stomach, pancreas, bone, thyroid, tail, urine, and feces. Tissues were weighed and then counted with a calibrated gamma counter (Packard, Cobra II model 5002) using three energy windows: 60-120 keV (window A), 180-260 keV (window B), and 400-480 keV (window C). Counting was performed both immediately after sacrifice and after 7 days; counts were decay corrected from the time of injection and then converted to the percentage of injected dose (% ID) per gram of tissue (% ID/g). No differences were noted between the data; therefore, the biodistributions are reported using the data acquired immediately using window A.
The biodistribution studies of [^225Ac(DOTA)]^− and ^225Ac(NO3)3 were carried out as described above for [^225Ac(macropa)]^+, with the following modifications. [^225Ac(DOTA)]^− was prepared by adding ^225Ac(NO3)3 (338 μL, 1.1 MBq) to a solution of DOTA (100 μg, 20 mg/mL in H2O) in NH4OAc (467 μL, 0.15 M, pH 7). The pH of the solution was adjusted to 7 using NH4OAc (150 μL, 1 M, pH 7) and the solution was heated at 85° C. for 45 min. RCY>99% was confirmed by TLC as described above. [^225Ac(DOTA)]^− was diluted with saline to a final concentration of 0.05 MBq/100 μL, and 100 μL were injected into each mouse. ^225Ac(NO3)3 (˜58 μL, 0.4 MBq) was diluted and injected in the same manner as [^225Ac(DOTA)]^−. One mouse that was to be euthanized at the 5 h time point in the [^225Ac(DOTA)]^− study died shortly after injection. In the same manner, one mouse that was to be euthanized at the 1 h time point in the ^225Ac(NO3)3 study died.
The in vivo stability [^225Ac(macropa)]^+ was examined by comparing its biodistribution to those of ^225Ac(NO3)3 and [^225Ac(DOTA)]^−. C57BL/6 mice were injected via tail vein with 10-50 kBq of each radiometal complex and were sacrificed after 15 min, 1 h, or 5 h. The amount of ^225Ac retained in each organ was quantified by gamma counting and reported as the percent of injected dose per gram of tissue (% ID/g). The results of these studies are compiled in Tables 1-3. Inadequate stability of an ^225Ac complex leading to the loss of radioisotope in vivo is manifested by the accumulation of ^225Ac in the liver, spleen, and bone of mice.^[11,12,32] […] The biodistribution profile of [^225Ac(macropa)]^+ (FIG. 3B) differs markedly from that of ^225Ac(NO3)3. […]

[1] = 15 min after i.v. injection, energy window A (60-120 keV)
[2] = 15 min after i.v. injection, energy window B (180-260 keV)
[3] = 15 min after i.v. injection, energy window C (400-480 keV)
[4] = 1 h after i.v. injection, energy window A (60-120 keV)
[5] = 1 h after i.v. injection, energy window B (180-260 keV)
[6] = 1 h after i.v. injection, energy window C (400-480 keV)
[7] = 5 h after i.v. injection, energy window A (60-120 keV)
[8] = 5 h after i.v. injection, energy window B (180-260 keV)

## O=C([O-])CN1CCN(CC(=O)[O-])CCN(CC(=O)[O-])CCN(CC(=O)[O-])CC1.[225Ac+3] [[^225Ac(DOTA)]^−]
[1]
  % ID/g in bladder: 48.2703 % ID/g
  % ID/g in blood: 5.2881 % ID/g
  % ID/g in bone (femur + joint): 2.6298 % ID/g
  % ID/g in brain: 0.2655 % ID/g
  % ID/g in feces: 6.2730 % ID/g
  % ID/g in heart: 2.3335 % ID/g
  % ID/g in kidneys: 27.6566 % ID/g
  % ID/g in large intestines: 2.3348 % ID/g
  % ID/g in liver: 2.2520 % ID/g
  % ID/g in lungs: 5.7556 % ID/g
  % ID/g in pancreas: 1.5090 % ID/g
  % ID/g in small intestines: 2.6370 % ID/g
  % ID/g in spleen: 2.5905 % ID/g
  % ID/g in stomach: 2.7440 % ID/g
  % ID/g in tail: 8.8606 % ID/g
  % ID/g in thyroids: −5.7725 % ID/g
  % ID/g in urine: 1467.9186 % ID/g
[2]
  % ID/g in bladder: 54.4696 % ID/g
  % ID/g in blood: 5.6357 % ID/g
  % ID/g in bone (femur + joint): 3.0357 % ID/g
  % ID/g in brain: 0.2735 % ID/g
  % ID/g in feces: 1.0222 % ID/g
  % ID/g in heart: 2.7276 % ID/g
  % ID/g in kidneys: 28.0858 % ID/g
  % ID/g in large intestines: 2.5365 % ID/g
  % ID/g in liver: 2.1817 % ID/g
  % ID/g in lungs: 6.0147 % ID/g
  % ID/g in pancreas: 1.4929 % ID/g
  % ID/g in small intestines: 2.5009 % ID/g
  % ID/g in spleen: 2.9076 % ID/g
  % ID/g in stomach: 2.7311 % ID/g
  % ID/g in tail: 9.4746 % ID/g
  % ID/g in thyroids: 1.6601 % ID/g
  % ID/g in urine: 1635.4394 % ID/g
[3]
  % ID/g in bladder: 76.0987 % ID/g
  % ID/g in blood: 7.2941 % ID/g
  % ID/g in bone (femur + joint): 4.4224 % ID/g
  % ID/g in brain: 0.1588 % ID/g
  % ID/g in feces: 1.5693 % ID/g
  % ID/g in heart: 2.5579 % ID/g
  % ID/g in kidneys: 40.4489 % ID/g
  % ID/g in large intestines: 3.8419 % ID/g
  % ID/g in liver: 2.9046 % ID/g
  % ID/g in lungs: 7.3872 % ID/g
  % ID/g in pancreas: 1.0290 % ID/g
  % ID/g in small intestines: 3.8916 % ID/g
  % ID/g in spleen: 1.5598 % ID/g
  % ID/g in stomach: 3.2425 % ID/g
  % ID/g in tail: 13.4731 % ID/g
  % ID/g in thyroids: −109.5394 % ID/g
  % ID/g in urine: 2691.0615 % ID/g
[4]
  % ID/g in bladder: 4.7351 % ID/g
  % ID/g in blood: 0.1144 % ID/g
  % ID/g in bone (femur + joint): 0.4487 % ID/g
  % ID/g in brain: 0.0224 % ID/g
  % ID/g in feces: 0.2035 % ID/g
  % ID/g in heart: 0.1012 % ID/g
  % ID/g in kidneys: 1.4020 % ID/g
  % ID/g in large intestines: 0.1229 % ID/g
  % ID/g in liver: 0.2715 % ID/g
  % ID/g in lungs: 0.1555 % ID/g
  % ID/g in pancreas: 0.0743 % ID/g
  % ID/g in small intestines: 1.7207 % ID/g
  % ID/g in spleen: 0.0938 % ID/g
  % ID/g in stomach: 0.1367 % ID/g
  % ID/g in tail: 0.8091 % ID/g
  % ID/g in thyroids: 2.3564 % ID/g
  % ID/g in urine: 158.6102 % ID/g
[5]
  % ID/g in bladder: 4.7141 % ID/g
  % ID/g in blood: 0.1127 % ID/g
  % ID/g in bone (femur + joint): 0.4126 % ID/g
  % ID/g in brain: 0.0248 % ID/g
  % ID/g in feces: 0.2349 % ID/g
  % ID/g in heart: 0.1378 % ID/g
  % ID/g in kidneys: 1.2560 % ID/g
  % ID/g in large intestines: 0.0813 % ID/g
  % ID/g in liver: 0.2672 % ID/g
  % ID/g in lungs: 0.1946 % ID/g
  % ID/g in pancreas: 0.0746 % ID/g
  % ID/g in small intestines: 1.8809 % ID/g
  % ID/g in spleen: 0.0825 % ID/g
  % ID/g in stomach: 0.1379 % ID/g
  % ID/g in tail: 0.8973 % ID/g
  % ID/g in thyroids: 2.6514 % ID/g
  % ID/g in urine: 159.1628 % ID/g
[6]
  % ID/g in bladder: 6.9149 % ID/g
  % ID/g in blood: 0.1102 % ID/g
  % ID/g in bone (femur + joint): 0.5654 % ID/g
  % ID/g in brain: 0.0380 % ID/g
  % ID/g in feces: 0.4091 % ID/g
  % ID/g in heart: 0.2857 % ID/g
  % ID/g in kidneys: 1.4787 % ID/g
  % ID/g in large intestines: 0.1381 % ID/g
  % ID/g in liver: 0.2841 % ID/g
  % ID/g in lungs: 0.2551 % ID/g
  % ID/g in pancreas: 0.1730 % ID/g
  % ID/g in small intestines: 2.0201 % ID/g
  % ID/g in spleen: 0.2228 % ID/g
  % ID/g in stomach: 0.1720 % ID/g
  % ID/g in tail: 1.0280 % ID/g
  % ID/g in thyroids: 3.5247 % ID/g
  % ID/g in urine: 177.6788 % ID/g
[7]
  % ID/g in bladder: 0.3551 % ID/g
  % ID/g in blood: 0.0140 % ID/g
  % ID/g in bone (femur + joint): 0.2063 % ID/g
  % ID/g in brain: 0.0213 % ID/g
  % ID/g in feces: 5.5318 % ID/g
  % ID/g in heart: 0.0664 % ID/g
  % ID/g in kidneys: 0.6172 % ID/g
  % ID/g in large intestines: 0.2026 % ID/g
  % ID/g in liver: 0.1010 % ID/g
  % ID/g in lungs: 0.0390 % ID/g
  % ID/g in pancreas: 0.0677 % ID/g
  % ID/g in small intestines: 0.0967 % ID/g
  % ID/g in spleen: 0.1380 % ID/g
  % ID/g in stomach: 0.0852 % ID/g
  % ID/g in tail: 0.3057 % ID/g
  % ID/g in thyroids: 3.6425 % ID/g
  % ID/g in urine: 1.1612 % ID/g
[8]
  % ID/g in bladder: 0.7521 % ID/g
  % ID/g in blood: 0.0292 % ID/g
  % ID/g in bone (femur + joint): 0.1478 % ID/g
  % ID/g in brain: 0.0513 % ID/g
  % ID/g in feces: 3.3534 % ID/g
  % ID/g in heart: 0.0879 % ID/g
  % ID/g in kidneys: 0.6718 % ID/g
  % ID/g in large intestines: 0.2527 % ID/g
  % ID/g in liver: 0.2712 % ID/g
  % ID/g in lungs: 0.1289 % ID/g
  % ID/g in pancreas: 0.1266 % ID/g
  % ID/g in small intestines: 0.2065 % ID/g
  % ID/g in spleen: 0.0834 % ID/g
  % ID/g in stomach: 0.1789 % ID/g
  % ID/g in tail: 0.1634 % ID/g
  % ID/g in thyroids: 16.2357 % ID/g
  % ID/g in urine: 3.6967 % ID/g
